# Assays:
# P. aeruginosa PBP3 = molecular target: T1, P. aeruginosa PBP3 (Pseudomonas aeruginosa, UniProt G3XD46); assay: Bocillin-FL fluorescence polarization competition binding assay, P. aeruginosa PBP3; conditions: fluorescence polarization competition binding assay using Bocillin-FL
# T1 construct: made in house
# Text: Example I: Experimental Method for Penicillin-Binding Protein Binding Assays with Bocillin-FL Via Fluorescence Polarization
# To determine the ability of boronic acid-based test PBP inhibitors to bind Penicillin Binding Proteins (PBPs), Bocillin-FL (fluorescently-labeled penicillin V; ThermoFisher Scientific) was used in a fluorescence polarization (FP) competition binding assay to assess inhibitor binding to PBP2, PBP3 or PBP4 from Escherichia coli (K12), PBP3 from Pseudomonas aeruginosa (PA01), PBP1a, PBP2 and PBP3 from Acinetobacter baumannii (ATCC 19606), and PBP2 from Neiserria gonorrheae (FA19). PBPs were cloned and purified as described previously (E. coli PBPs, King, D. T, et al., ACS Infectious Diseases 2015, 1, 175-184; P. aeruginosa PBP3, Han et. al., PNAS 2010, 107 (51), 22002-22007; A. baumannii PBPs, Penwell et. al., Antimicrob. Agents Chemother. 2015, 59 (3), 1680-1689; N. gonorrhoeae PBP2, Singh et. al., J Biol. Chem. 2019, 294 (38), 14020-14032). To establish assay conditions for competition binding, enzyme titration/saturation binding experiments were initially performed. Bocillin-FL was prepared at 0.2 μM in a buffer comprised of 50 mM Hepes (pH 8.0), 300 mM NaCl and 5% (v/v) glycerol for reactions with E. coli, P. aeruginosa and N. gonorrhoeae PBPs, and 25 mM Tris (pH 8.0), 200 mM NaCl and 10% (v/v) glycerol and 0.005% (v/v) Tween 20 for reactions with A. baumannii PBPs. Saturation binding was performed by mixing 40 μl of PBP solutions ranging in concentrations from 0-24 μM with 40 μl of the 0.2 μM Bocillin-FL solution, in individual wells of a black 384-well microplate. FP was measured immediately upon mixing (Excitation, 490 nm; Emission, 520 nm; g-factor, 0.96), using a Cytation3 (BioTek) microplate reader and measured continuously for up to 120 minutes. […] The competition binding assay (80 μl final volume) was validated using beta-lactams and PBPs at final concentrations of: 1.5 μM, E. coli PBP3; 0.75 μM, P. aeruginosa PBP3; 1 μM A. baumannii PBP1a; 2.5 μM A. baumannii PBP2; 0.2 μM A. baumannii PBP3; and […] N. gonorrhoeae PBP2. Bocillin-FL was at 0.1 μM (0.05 μM with A. baumannii PBP1a) and beta-lactam concentrations ranged from 0-1000 μM. […] Bocillin-FL was added and the FP immediately measured for up to 60 minutes (90 minutes for E. coli PBP2). […] The beta-lactam potency was reported as the concentration of beta-lactam required to reduce the amount of PBP bound-Bocillin-FL by 50% (EC50). […] Binding assays for boronic acid PBP inhibitors were performed in an identical fashion for the respective PBPs
# A. baumannii ATCC 19606 = assay: Broth microdilution MIC in CAMHB; type: cell-based; conditions: Acinetobacter baumannii, ATCC19606; MHB; read-out: Minimum Inhibitory Concentration, A. baumannii ATCC 19606
# Description: (§1) Example III: In Vitro Antibacterial Assays
# (§2) To determine the ability of test compounds to inhibit the growth of bacterial strains, classic cell based broth microdilution minimum inhibitory concentration (MIC) assays were employed. MIC assays are performed according to CLSI methods except where otherwise noted (CLSI, 2018 and CLSI, 2019). The reference type strain E. coli ATCC 25922; the wild-type parent strain E. coli AG100; the hyper-permeable E. coli 901C and E. coli D22; and the E. coli AG100A strain lacking the acrAB efflux pump encoding genes were used to determine the ability of the PBP inhibitors to penetrate the outer membrane of gram-negative bacteria and inhibit bacterial growth. […] The P. aeruginosa ATCC 27853 and A. baumannii ATCC 19606, along with the hyper-permeable P. aeruginosa ATCC 35151 and an engineered efflux pump-compromised strain of P. aeruginosa (ΔmexAB-oprM) were used to determine the ability of PBP inhibitors to penetrate the outer membrane of P. aeruginosa and A. baumannii and assess antibacterial activity against these important gram-negative organisms.
# (§3) Briefly, cryo-preserved bacterial cultures of challenge strains are streaked for isolation on appropriate agar medium, in this case cation-adjusted Mueller Hinton agar. Following incubation to allow growth of the colonies, plates are sealed with parafilm and stored refrigerated for up to two weeks. For preparation of assay inoculum and to ensure low variability, at least 5 colonies are picked from the agar plates with an inoculating loop and aseptically transferred to a culture tube containing 3 mL of cation-adjusted Mueller Hinton broth (CAMHB). The broth culture is grown for 3-5 hours at 37° C. with shaking at 200 rpm. Meanwhile, 2-fold serial dilutions of test compounds are conducted in a 96-well plate with a final volume of 75 μL per well at 2-fold the final desired concentration. After the dilution plates are set up the growing cultures are then diluted in a cuvette containing CAMHB and the optical density is measured at 600 nm. The inoculum is diluted such that 75 μL of this culture in CAMHB results in a starting bacterial concentration of 2-8×10^5 CFU/mL when added to the dilution plates. The plates are incubated for 16-20 hours for Enterobacteriaceae and Pseudomonas and 20-24 hours for Acinetobacter at 37° C. The MIC values are read visually as the lowest concentration well with no bacterial growth.
# E. coli 901C = assay: Broth microdilution MIC in CAMHB; type: cell-based; conditions: Escherichia coli; MHB; hyper-permeable E. coli 901C; read-out: Minimum Inhibitory Concentration, E. coli 901C
# Description: as §1, §2, §3
# E. coli AG100A = assay: Broth microdilution MIC in CAMHB; type: cell-based; conditions: Escherichia coli, read-out: Minimum Inhibitory Concentration, E. coli AG100A
# Description: as §1, §2, §3
# E. coli AG100 = assay: Broth microdilution MIC in CAMHB; type: cell-based; conditions: Escherichia coli; MHB; wild-type parent strain E. coli AG100; read-out: Minimum Inhibitory Concentration, E. coli AG100
# Description: as §1, §2, §3
# E. coli ATCC 25922 = assay: Broth microdilution MIC in CAMHB; type: cell-based; conditions: Escherichia coli, ATCC25922; MHB; E. coli ATCC 25922; read-out: Minimum Inhibitory Concentration, E. coli 25922
# Description: as §1, §2, §3
# E. coli D22 = assay: Broth microdilution MIC in CAMHB; type: cell-based; conditions: Escherichia coli; MHB; hyper-permeable E. coli D22; read-out: Minimum Inhibitory Concentration, E. coli D22
# Description: as §1, §2, §3
# [1] = tested on: K. pneumoniae 848844 producing SHV-11 and KPC-2; assay: Broth microdilution MIC in CAMHB; type: cell-based; conditions: Klebsiella pneumoniae, read-out: Minimum Inhibitory Concentration, K. pneumoniae 848844
# Description: as §1, §2, §3
# [2] = tested on: K. pneumoniae SI-117 producing VIM-1; assay: Broth microdilution MIC in CAMHB; type: cell-based; conditions: Klebsiella pneumoniae, read-out: Minimum Inhibitory Concentration, K. pneumoniae SI-117
# Description: as §1, §2, §3
# [3] = tested on: K. pneumoniae UMM producing SHV-5 and KPC-2; assay: Broth microdilution MIC in CAMHB; type: cell-based; conditions: Klebsiella pneumoniae, read-out: Minimum Inhibitory Concentration, K. pneumoniae UMM
# Description: as §1, §2, §3
# [4] = tested on: P. aeruginosa (ΔmexAB-oprM); assay: Broth microdilution MIC in CAMHB; type: cell-based; conditions: Pseudomonas aeruginosa, read-out: Minimum Inhibitory Concentration, P. aeruginosa ΔmexAB-OprM
# Description: as §1, §2, §3
# P. aeruginosa ATCC 27853 = assay: Broth microdilution MIC in CAMHB; type: cell-based; conditions: Pseudomonas aeruginosa, ATCC27853; MHB; read-out: Minimum Inhibitory Concentration, P. aeruginosa ATCC 27853
# Description: as §1, §2, §3
# P. aeruginosa ATCC 35151 = assay: Broth microdilution MIC in CAMHB; type: cell-based; conditions: Pseudomonas aeruginosa, ATCC35151; MHB; hyper-permeable strain; read-out: Minimum Inhibitory Concentration, P. aeruginosa ATCC 35151
# Description: as §1, §2, §3
# T1 sequence (G3XD46 whole entry): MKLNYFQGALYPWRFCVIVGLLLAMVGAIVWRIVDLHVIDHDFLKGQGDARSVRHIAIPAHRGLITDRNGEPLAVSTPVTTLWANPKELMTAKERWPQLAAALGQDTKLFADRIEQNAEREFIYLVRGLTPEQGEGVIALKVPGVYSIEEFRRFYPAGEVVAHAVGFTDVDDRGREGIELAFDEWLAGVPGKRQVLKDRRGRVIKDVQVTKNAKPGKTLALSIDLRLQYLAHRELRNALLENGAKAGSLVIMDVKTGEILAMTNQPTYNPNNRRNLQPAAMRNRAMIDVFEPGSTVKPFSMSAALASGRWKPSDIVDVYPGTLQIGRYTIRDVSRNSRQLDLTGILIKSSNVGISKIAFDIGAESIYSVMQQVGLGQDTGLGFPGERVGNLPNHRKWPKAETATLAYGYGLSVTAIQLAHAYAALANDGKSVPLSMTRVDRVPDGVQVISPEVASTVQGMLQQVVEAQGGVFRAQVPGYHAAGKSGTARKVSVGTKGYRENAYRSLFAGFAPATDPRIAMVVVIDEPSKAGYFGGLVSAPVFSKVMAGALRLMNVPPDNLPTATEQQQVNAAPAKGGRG
Structure (SMILES),P. aeruginosa PBP3 Potency (P. aeruginosa PBP3),MIC (A. baumannii ATCC 19606),MIC (E. coli 901C),MIC (E. coli AG100A),MIC (E. coli AG100),MIC (E. coli ATCC 25922),MIC (E. coli D22),MIC [1],MIC [2],MIC [3],MIC [4],MIC (P. aeruginosa ATCC 27853),MIC (P. aeruginosa ATCC 35151)
"NCCN1CCN(C(=O)N[C@@H](C(=O)N[C@H]2Cc3cccc(C(=O)O)c3OB2O)c2c(F)cccc2F)C(=O)C1=O (single isomer, unassigned) [Example 223]",D (D represents a potency <10 μM),> 128 mg/L,> 128 mg/L,> 128 mg/L,> 128 mg/L,> 128 mg/L,> 128 mg/L,> 128 mg/L,8 to 16 mg/L,2 to 4 mg/L,32 to 64 mg/L,> 128 mg/L,2 to 4 mg/L
"NCCN1CCN(C(=O)N[C@@H](C(=O)N[C@H]2Cc3cccc(C(=O)O)c3OB2O)c2c(Cl)cccc2Cl)C(=O)C1=O (single isomer, unassigned) [Example 224]",B (B represents a potency between 30 μM and 500 μM inclusive),> 128 mg/L,> 128 mg/L,> 128 mg/L,> 128 mg/L,> 128 mg/L,> 128 mg/L,> 128 mg/L,> 128 mg/L,8 to 16 mg/L,> 128 mg/L,> 128 mg/L,32 to 64 mg/L
"NCCCN1CCN(C(=O)N[C@@H](C(=O)N[C@H]2Cc3cccc(C(=O)O)c3OB2O)c2ccc(O)c(F)c2F)C(=O)C1=O (single isomer, unassigned) [Example 238]",D (D represents a potency <10 μM),> 128 mg/L,32 to 64 mg/L,32 to 64 mg/L,32 to 64 mg/L,2 to 4 mg/L,8 to 16 mg/L,8 to 16 mg/L,0.5 to 1 mg/L,< 0.25 mg/L,2 to 4 mg/L,32 to 64 mg/L,< 0.25 mg/L
"NCCCN1CCN(C(=O)N[C@H](C(=O)N[C@H]2Cc3cccc(C(=O)O)c3OB2O)c2ccc(O)c(F)c2F)C(=O)C1=O (single isomer, unassigned) [Example 239]",C (C represents a potency between 10 and 30 μM),> 128 mg/L,> 128 mg/L,> 128 mg/L,> 128 mg/L,> 128 mg/L,> 128 mg/L,> 128 mg/L,8 to 16 mg/L,2 to 4 mg/L,8 to 16 mg/L,> 128 mg/L,2 to 4 mg/L
"CCN1C[C@H](C)N(C(=O)N[C@@H](C(=O)N[C@H]2Cc3cccc(C(=O)O)c3OB2O)c2ccc(O)c(F)c2F)C(=O)C1=O [Example 240, (3R)-3-(2-(2,3-difluoro-4-hydroxyphenyl)-2-((S)-4-ethyl-6-methyl-2,3-dioxopiperazine-1-carboxamido)acetamido)-2-hydroxy-3,4-dihydro-2H-benzo[e][1,2]oxaborinine-8-carboxylic acid]",D (D represents a potency <10 μM),> 128 mg/L,> 128 mg/L,32 to 64 mg/L,> 128 mg/L,32 to 64 mg/L,32 to 64 mg/L,32 to 64 mg/L,2 to 4 mg/L,< 0.25 mg/L,8 to 16 mg/L,> 128 mg/L,2 to 4 mg/L
"C[C@H]1CN(CCCN)C(=O)C(=O)N1C(=O)NC(C(=O)N[C@H]1Cc2cccc(C(=O)O)c2OB1O)c1ccc(O)c(F)c1F (stereo partly drawn) [Example 243, (3R)-3-(2-((S)-4-(3-aminopropyl)-6-methyl-2,3-dioxopiperazine-1-carboxamido)-2-(2,3-difluoro-4-hydroxyphenyl)acetamido)-2-hydroxy-3,4-dihydro-2H-benzo[e][1,2]oxaborinine-8-carboxylic acid]",D (D represents a potency <10 μM),> 128 mg/L,> 128 mg/L,32 to 64 mg/L,32 to 64 mg/L,32 to 64 mg/L,32 to 64 mg/L,32 to 64 mg/L,2 to 4 mg/L,0.5 to 1 mg/L,8 to 16 mg/L,> 128 mg/L,2 to 4 mg/L

# Reference: patent US20230114728A1 (Venatorx Pharmaceuticals, Inc., priority 2019, published 2023)
